Test system: HCT 116 cells
Assay: CellTiter-Glo Luminescent Cell Viability Assay in HCT 116 cells
Assay type: cell-based
Conditions: HCT 116 human colon carcinoma cells, 5 days (120 h) incubation, CellTiter-Glo luminescence, triplicate
Text: CellTiter-Glo™ Assay in HCT 116 Cells
The CellTiter-Glo™ Luminescent Cell Viability Assay (Promega) is a homogeneous method of determining the number of viable cells in culture based on quantitation of the ATP present, which signals the presence of metabolically active cells.
HCT 116 cells (human colon carcinoma, ATCC-No. CCI-247) were cultivated in RPMI 1640 medium with GlutaMAX™ I (Invitrogen, Cat-No. 61870-010), 5% Fetal Calf Serum (FCS, Sigma Cat-No. F4135 (FBS)); 100 Units/ml penicillin/[…] streptomycin (=Pen/Strep from Invitrogen Cat. No. 15140).
For the assay the cells were seeded in 384 well plates, 1000 cells per well, in the same medium. The next day the test compounds were added in various concentrations ranging from 30 μM to 0.0015 μM (10 concentrations, 1:3 diluted). After 5 days the CellTiter-Glo™ assay was done according to the instructions of the manufacturer (CellTiter-Glo™ Luminescent Cell Viability Assay, from Promega). In brief: the cell-plate was equilibrated to room temperature for approximately 30 minutes and than the CellTiter-Glo™ reagent was added. The contents were carefully mixed for 15 minutes to induce cell lysis. After 45 minutes the luminescent signal was measured in Victor 2, (scanning multiwell spectrophotometer, Wallac).
• Medium: RPMI 1640 with GlutaMAX™ I (Invitrogen, Cat-Nr. 61870), 5% FCS (Sigma Cat.-No. F4135), Pen/Strep (Invitrogen, Cat No. 15140). • HCT116 (ATCC-No. CCI-247): 1000 cells in 60 μl per well of 384 well plate (Greiner 781098, μClear-plate white) • After seeding incubate plates 24 h at 37° C., 5% CO2 2nd. day: Induction (Treatment with Compounds, 10 Concentrations):
In order to achieve a final concentration of 30 μM as highest concentration 3.5 μl of 10 mM compound stock solution were added directly to 163 μl media. Then step e) of the dilution procedure described below, was followed.

COc1cc(Cl)ccc1C(=O)NS(=O)(=O)c1ccc(-c2c(C)cc(C)cc2C)nc1 [Example 1-5, 6-(2,4,6-Trimethyl-phenyl)-pyridine-3-sulfonic acid 4-chloro-2-methoxy-benzoylamide] and COc1cc(Cl)ccc1C(=O)NS(=O)(=O)c1ccc(-c2c(C)cccc2C)nc1 [Example 1-6, 6-(2,6-Dimethyl-phenyl)-pyridine-3-sulfonic acid 4-chloro-2-methoxy-benzoylamide] fall in the same range of IC50: 500 to 7500 nM for the first, 500 to 7500 nM for the second.

COc1cccc(OC)c1-c1ccc(S(=O)(=O)NC(=O)c2ccc(F)cc2C(F)(F)F)cn1 [Example 1-3, 6-(2,6-Dimethoxy-phenyl)-pyridine-3-sulfonic acid 4-fluoro-2-trifluoromethyl-benzoylamide] and COc1cccc(OC)c1-c1ccc(S(=O)(=O)NC(=O)c2ccc(F)cc2Cl)cn1 [Example 1-2, 6-(2,6-Dimethoxy-phenyl)-pyridine-3-sulfonic acid 2-chloro-4-fluoro-benzoylamide] fall in the same range of IC50: 500 to 7500 nM for the first, 500 to 7500 nM for the second.

COc1cccc(OC)c1-c1ccc(S(=O)(=O)NC(=O)c2ccc(Cl)cc2Cl)cn1 [Example 1-1, 6-(2,6-Dimethoxy-phenyl)-pyridine-3-sulfonic acid 2,4-dichloro-benzoylamide] and COc1cc(Cl)ccc1C(=O)NS(=O)(=O)c1ccc(-c2c(OC)cccc2OC)nc1 [Example 1-4, 6-(2,6-Dimethoxy-phenyl)-pyridine-3-sulfonic acid 4-chloro-2-methoxy-benzoylamide] cannot be ordered by IC50: 1430 nM for the first, 500 to 7500 nM for the second.

CS(=O)(=O)c1ccccc1-c1ccc(S(=O)(=O)NC(=O)c2ccc(Cl)cc2Cl)cn1 [Example 1-8, 6-(2-Methanesulfonyl-phenyl)-pyridine-3-sulfonic acid 2,4-dichloro-benzoylamide] and CSc1ccccc1-c1ccc(S(=O)(=O)NC(=O)c2ccc(Cl)cc2Cl)cn1 [Example 1-7, 6-(2-Methylsulfanyl-phenyl)-pyridine-3-sulfonic acid 2,4-dichloro-benzoylamide] cannot be ordered by IC50: 2940 nM for the first, 500 to 7500 nM for the second.

COc1cc(Cl)ccc1C(=O)NS(=O)(=O)c1ccc(-c2ccccc2NS(C)(=O)=O)nc1 [Example 1-11, 6-(2-Methanesulfonylamino-phenyl)-pyridine-3-sulfonic acid 4-chloro-2-methoxy-benzoylamide] and COc1cc(Cl)ccc1C(=O)NS(=O)(=O)c1cnc(-c2ccccc2Cl)c(C)c1 [Example 1-16, 6-(2-Chloro-phenyl)-5-methyl-pyridine-3-sulfonic acid 4-chloro-2-methoxy-benzoylamide] fall in the same range of IC50: 500 to 7500 nM for the first, 500 to 7500 nM for the second.

Cc1cc(S(=O)(=O)NC(=O)c2ccc(F)cc2Cl)cnc1-c1ccccc1Cl [Example 1-15, 6-(2-Chloro-phenyl)-5-methyl-pyridine-3-sulfonic acid 2-chloro-4-fluoro-benzoylamide] and Cc1cc(S(=O)(=O)NC(=O)c2ccc(F)cc2C(F)(F)F)cnc1-c1ccccc1Cl [Example 1-14, 6-(2-Chloro-phenyl)-5-methyl-pyridine-3-sulfonic acid 4-fluoro-2-trifluoromethyl-benzoylamide] fall in the same range of IC50: 500 to 7500 nM for the first, 500 to 7500 nM for the second.

COc1ccccc1-c1ncc(S(=O)(=O)NC(=O)c2ccc(Cl)cc2Cl)cc1C [Example 1-12, 6-(2-Methoxy-phenyl)-5-methyl-pyridine-3-sulfonic acid 2,4-dichloro-benzoylamide] and COc1ccccc1-c1ncc(S(=O)(=O)NC(=O)c2ccc(F)cc2C(F)(F)F)cc1C [Example 1-13, 6-(2-Methoxy-phenyl)-5-methyl-pyridine-3-sulfonic acid 4-fluoro-2-trifluoromethyl-benzoylamide] cannot be ordered by IC50: 3980 nM for the first, 500 to 7500 nM for the second.

COc1cccc(F)c1-c1ccc(S(=O)(=O)NC(=O)c2ccc(Cl)cc2Cl)cn1 [Example 1-10, 6-(2-Fluoro-6-methoxy-phenyl)-pyridine-3-sulfonic acid 2,4-dichloro-benzoylamide] and O=C(NS(=O)(=O)c1ccc(-c2ccc(C(F)(F)F)cc2C(F)(F)F)nc1)c1ccc(Cl)cc1Cl [Example 1-9, 6-(2,4-Bis-trifluoromethyl-phenyl)-pyridine-3-sulfonic acid 2,4-dichloro-benzoylamide] fall in the same range of IC50: 500 to 7500 nM for the first, 500 to 7500 nM for the second.

Source: patent publication US7879884B2, “Aryl pyridyl sulfonamide derivatives, their manufacture and use as pharmaceutical agents” (Hoffmann-La Roche Inc., priority 2007, dated 2011)
